Data on five compounds can be found in ChEMBL document CHEMBL1136674, “Antimycobacterial pimarane diterpenes from the Fungus Diaporthe sp” (Bioorg Med Chem Lett, 2003).

Converted amounts (≈) assume the structure as drawn.

One test relates to Vero. The test can be described thus: Cytotoxicity against vero cell line. It is filed as functional, cell-based. Particulars: Chlorocebus sabaeus.
Test [1] relates to Mycobacterium tuberculosis. The test can be described thus: Antitubercular activity against Mycobacterium tuberculosis. In kind it is functional.
The next test deals with KB. Description: Cytotoxicity against KB cell line. In kind it is functional, cell-based. The note with it: Homo sapiens.
The subject of a further test is BC1 cell line. Description: Cytotoxicity against BC-1 cell line. In kind it is functional, cell-based. Particulars: Homo sapiens.

By IC50 is commonly meant the concentration that inhibits the measured activity by half. A lower IC50 goes with inhibition by little substance. The MIC is the lowest concentration found to suppress growth. Lower therefore signals inhibition by little substance. `C=C[C@]1(C)C=C2C(O)[C@]3(O)OC[C@@]4(CCCC(C)(C)[C@@]43O)[C@@]2(O)[C@H](O)C1` (stereo partly drawn) [DIAPORTHEIN A] yielded an IC50 in the test on Vero of more than 50 µg/mL. The compound further gave an MIC in test [1] of 200 µg/mL (≈ 546 µM). Compound `NC[C@H]1O[C@H](O[C@H]2[C@H](O)[C@@H](O[C@H]3O[C@H](CO)[C@@H](O)[C@H](N)[C@H]3O)[C@H](N)C[C@@H]2N)[C@H](O)[C@@H](O)[C@@H]1O.O=S(=O)(O)O` [KANAMYCIN SULFATE] returned an MIC in test [1] of 5 µg/mL. On to `NNC(=O)c1ccncc1` [ISONIAZID], for which the MIC in test [1] came to 0.09 µg/mL (≈ 0.656 µM). Take `Cc1c2ccncc2c(C)c2c1[nH]c1ccccc12` [ELLIPTECINE]: the IC50 with KB and with BC1 cell line was 0.3 µg/mL (≈ 1.22 µM) in each case. `C=C[C@]1(C)C=C2C(=O)[C@]3(O)OC[C@@]4(CCCC(C)(C)[C@@]43O)[C@@]2(O)[C@H](O)C1` [DIAPORTHEIN B]: in the test on Vero, 1.5 µg/mL (≈ 4.12 µM) corresponded to half-maximal inhibition (IC50). Besides, the MIC in test [1] worked out at 3.1 µg/mL (≈ 8.51 µM).
